Results: patent publication US20160120858A1 (ACADEMIA SINICA, priority 2014, published 2016)

Assays:
Shank2^−/− mice [1] = assay: Repetitive behaviors (jumping, grooming) in home cage; assay type: in vivo, mouse; settings: 30 mg/kg i.p.; for Grooming / Jumping: Shank2^−/− mice, 2 hours prior to testing; for Repetitive behaviors: wild-type mice
Description: The injection was performed 2 hours before (Shank2^−/− mice and wild-type littermates), or 3 hours before (Tbr1^+/− mice and wild-type littermates) behavioral assays at the discretion of the facility. A within-subjects design was designed with a one week washout period (FIG. 8), and divided animals into two groups, vehicle-first and clioquinol-first group, to rule out carryover effects. Each mouse received a single acute dose of vehicle or clioquinol, and underwent a single behavioral task, one task per week. Testing was conducted in dedicated behavioral test rooms during the light phase (three-chamber test) and the dark phase (repetitive behaviors and open field test). Shank2^−/− mice and their wild-type littermates in their home cages without bedding were used to measure times spent in repetitive behaviors including jumping and grooming. In this case, jumping is defined as mice planting rear feet and standing up by lifting front feet along the cage, in other words, the cage corner or a side wall, and jumping up such that both of the rear feed are separated from the bottom surface. Meanwhile, grooming is defined as stroking or scratching the face or the body with two front feet or licking a part of the body. The experiments and analysis were performed independently in a blind manner.

AMPAR = assay: AMPA-fEPSPs, input-output and paired pulse ratio, hippocampal slices; assay type: cell-based, mouse; settings: 4 uM; for AMPA-fEPSPs: WT and KO; for Input-output relationship (AMPA-fEPSP slopes against fiber volley): WT and Shank2^−/− SC-CA1 synapses
Description: For electrophysiological experiments, sagittal hippocampal slices (400 uM thick for extracellular, 300 uM thick for intracellular recordings) of Shank2^-/- mice (or ZnT3^-/- mice) and their wild-type littermates were prepared using a vibratome (Leica VT1200) in ice-cold dissection buffer containing (in mM) 212 sucrose, 25 NaHCO3, 5 KCl, 1.25 NaH2PO4, 0.5 CaCl2, 3.5 MgSO4, 10 D-glucose, 1.25 L-ascorbic acid, and 2 Na-pyruvate bubbled with 95% 02/5% CO2. CA3 was removed to prevent epileptiform activity. Slices were restored for 1 hour in 32° C. in a normal artificial CSF (ACSF) (In units of mM: 124 NaCl, 2.5 kCl, 1 NaH2PO4, 25 NaHCO3, 10 glucose, 2 CaC12, 2 Mg504 oxidized by 95% 02/5% CO2) For the recording, a single slice was moved to and maintained in submerged-type chamber at 28° C., continuously perfused with ACSF (2 mL/minute) saturated with 95% 02/5% CO2. Stimulation and recording pipettes were pulled from borosilicate glass capillaries (Harvard Apparatus) using a micropipette electrode puller ([…]). For extracellular recordings, mouse hippocampal slices at the age of postnatal day 21 to 35 were used. Field excitatory postsynaptic potentials (fEPSPs) were recorded in the stratum radiatum of the hippocampal CA1 region using pipettes filled with ACSF (1 MΩ). fEPSP was amplified (Multiclamp 700B, Molecular Devices), and digitized (Digidata 1440A, Molecular Devices) for measurements. The Schaffer collateral pathway was stimulated every 20 seconds with pipettes filled with ACSF (0.3 to 0.5 MΩ). The stimulation intensity was adjusted to yield a half-maximal response, and three successive responses were averaged and expressed relative to the normalized baseline. To induce LTP, high frequency stimulation (100 Hz, 1 s) was applied after a stable baseline was acquired.

NMDAR = assay: NMDA-fEPSP extracellular recordings, hippocampal slices; assay type: cell-based, mouse; settings: for NMDAR function (NMDA-fEPSPs) at ZnT3^−/− synapses: ZnT3^−/− hippocampal SC-CA1 synapses
Description: For electrophysiological experiments, sagittal hippocampal slices (400 uM thick for extracellular, 300 uM thick for intracellular recordings) of Shank2^−/− mice (or ZnT3^−/− mice) and their wild-type littermates were prepared using a vibratome (Leica VT1200) in ice-cold dissection buffer containing (in mM) 212 sucrose, 25 NaHCO3, 5 KCl, 1.25 NaH2PO4, 0.5 CaCl2, 3.5 MgSO4, 10 D-glucose, 1.25 L-ascorbic acid, and 2 Na-pyruvate bubbled with 95% 02/5% CO2. CA3 was removed to prevent epileptiform activity. Slices were restored for 1 hour in 32° C. in a normal artificial CSF (ACSF) (In units of mM: 124 NaCl, 2.5 kCl, 1 NaH2PO4, 25 NaHCO3, 10 glucose, 2 CaC12, 2 Mg504 oxidized by 95% 02/5% CO2) For the recording, a single slice was moved to and maintained in submerged-type chamber at 28° C., continuously perfused with ACSF (2 mL/minute) saturated with 95% 02/5% CO2. Stimulation and recording pipettes were pulled from borosilicate glass capillaries (Harvard Apparatus) using a micropipette electrode puller (Narishege).
For extracellular recordings, mouse hippocampal slices at the age of postnatal day 21 to 35 were used. Field excitatory postsynaptic potentials (fEPSPs) were recorded in the stratum radiatum of the hippocampal CA1 region using pipettes filled with ACSF (1 MΩ). fEPSP was amplified (Multiclamp 700B, Molecular Devices), and digitized (Digidata 1440A, Molecular
Devices) for measurements. The Schaffer collateral pathway was stimulated every 20 seconds with pipettes filled with ACSF (0.3 to 0.5 MΩ). The stimulation intensity was adjusted to yield a half-maximal response, and three successive responses were averaged and expressed relative to the normalized baseline. To induce LTP, high frequency stimulation (100 Hz, 1 s) was applied after a stable baseline was acquired. […] To isolate NMDAR-mediated fEPSPs, ACSF containing 2 mM calcium, 0.1 mM magnesium, and 6,7-dinitroquinoxaline-2,3-dione (10 uM, DNQX, Tocris), which inhibits AMPAR-mediated EPSPs, were used.

Shank2^−/− mice [2] = assay: Open field test; assay type: in vivo, mouse; settings: 30 mg/kg i.p.; for Locomotor activity (hyperactivity, excessive action) / Time spent in the center region (anxiety-like behavior): 30 mg/kg
Description: The injection was performed 2 hours before (Shank2^−/− mice and wild-type littermates), or 3 hours before (Tbr1^+/− mice and wild-type littermates) behavioral assays at the discretion of the facility. A within-subjects design was designed with a one week washout period (FIG. 8), and divided animals into two groups, vehicle-first and clioquinol-first group, to rule out carryover effects. Each mouse received a single acute dose of vehicle or clioquinol, and underwent a single behavioral task, one task per week. Testing was conducted in dedicated behavioral test rooms during the light phase (three-chamber test) and the dark phase (repetitive behaviors and open field test). The size of the open field box was 40×40×40 cm, and the center zone line was 13.3 cm apart from the edge. Mice were placed in the center in the beginning of the test, and mouse movements were recorded with a video camera for 60 minutes, and analyzed by Ethovision 10.0 (Noldus).

Oc1c(I)cc(Cl)c2cccnc12 [clioquinol, 5-Chloro-7-Iodo-8-Hydroxyquinoline]
Grooming (Shank2^−/− mice [1]): not influenced | Jumping (Shank2^−/− mice [1]): not influenced | Grooming (Shank2^−/− mice [1]; listed as CQ): has no effect on grooming | Jumping (Shank2^−/− mice [1]; listed as CQ): fails to improve jumping | Grooming (Shank2^−/− mice [1]; listed as Clioquinol): had no effect | Jumping (Shank2^−/− mice [1]; listed as Clioquinol): had no effect | Repetitive behaviors (Shank2^−/− mice [1]): did not affect repetitive behaviors | Repetitive behaviors (Shank2^−/− mice [1]; listed as Clioquinol): had no effect | AMPA-fEPSPs (AMPAR): not affected | AMPA-fEPSPs (AMPAR; listed as CQ): has no effect on AMPA-fEPSPs | Input-output relationship (AMPA-fEPSP slopes against fiber volley) (AMPAR): had no effect | Input-output relationship (AMPA-fEPSP slopes against fiber volley) (AMPAR; listed as CQ): has no effect on the input-output relationship | NMDAR function (NMDA-fEPSPs) in the presence of PP3 (NMDAR; CQ 4 uM, 20 minutes): effectively enhances NMDAR function | NMDAR function (NMDA-fEPSPs) in the presence of Ca-EDTA (NMDAR; CQ 4 uM, 20 minutes, Ca-EDTA 2 mM throughout recordings): fails to enhance NMDAR function | NMDAR function (NMDA-fEPSPs) in the presence of PP2 (NMDAR; CQ 4 uM, 20 minutes, PP2 10 uM throughout recordings): fails to enhance NMDAR function | NMDAR function (NMDA-fEPSPs) in the presence of SU6656 (NMDAR; CQ 4 uM, 20 minutes, SU6656 10 uM throughout recordings): fails to enhance NMDAR function | NMDAR function (NMDA-fEPSPs) in the presence of TPEN (NMDAR; CQ 4 uM, 20 minutes, TPEN 25 uM throughout recordings): fails to enhance NMDAR function | Initial slopes of NMDA-fEPSPs (NMDAR; Shank2^−/− SC-CA1 synapses, clioquinol for 20 minutes): ~150 % of baseline levels | NMDAR function (NMDA-fEPSPs) in the presence of cuprizone (NMDAR; WT and KO slices): enhances NMDAR function | NMDAR function (NMDA-fEPSPs) (NMDAR; WT and Shank2^−/− SC-CA1 synapses, 4 uM, 20 minutes): enhances NMDAR function | NMDAR function (NMDA-fEPSPs) at ZnT3^−/− synapses (NMDAR): had no effect on NMDAR activity | NMDAR function (NMDA-fEPSPs) at ZnT3^−/− synapses (NMDAR; listed as CQ): fails to enhance NMDAR function | Locomotor activity (hyperactivity, excessive action) (Shank2^−/− mice [2]; Shank2^−/− mice): did not weaken | Time spent in the center region (anxiety-like behavior) (Shank2^−/− mice [2]; Shank2^−/− mice): had no effect on the center-region time | Time spent in the center region (anxiety-like behavior) (Shank2^−/− mice [2]; Shank2^−/− mice, listed as CQ): has no effect on the time spent in the center region | Locomotor activity (hyperactivity, excessive action) (Shank2^−/− mice [2]; Shank2^−/− mice, listed as Clioquinol): did not improve excessive action | Locomotor behavior (Shank2^−/− mice [2]; wild-type mice): had no effect | Time spent in the center region (anxiety-like behavior) (Shank2^−/− mice [2]; wild-type mice, listed as CQ): has no effect on the time spent in the center region | Time spent in the center region (anxiety-like behavior) (Shank2^−/− mice [2]; wild-type mice, listed as Clioquinol): had no effect
